This passage reports IC50 results from patent US20060040917A1, “Benzoxazepine derivatives as selective estrogen receptor modulators” (priority 2004, published 2006).

The target of experiment [1] is T1, human estrogen receptor α (Homo sapiens, UniProt P03372).
T1 construct: purchased Panvera
T1 sequence (P03372 1-595): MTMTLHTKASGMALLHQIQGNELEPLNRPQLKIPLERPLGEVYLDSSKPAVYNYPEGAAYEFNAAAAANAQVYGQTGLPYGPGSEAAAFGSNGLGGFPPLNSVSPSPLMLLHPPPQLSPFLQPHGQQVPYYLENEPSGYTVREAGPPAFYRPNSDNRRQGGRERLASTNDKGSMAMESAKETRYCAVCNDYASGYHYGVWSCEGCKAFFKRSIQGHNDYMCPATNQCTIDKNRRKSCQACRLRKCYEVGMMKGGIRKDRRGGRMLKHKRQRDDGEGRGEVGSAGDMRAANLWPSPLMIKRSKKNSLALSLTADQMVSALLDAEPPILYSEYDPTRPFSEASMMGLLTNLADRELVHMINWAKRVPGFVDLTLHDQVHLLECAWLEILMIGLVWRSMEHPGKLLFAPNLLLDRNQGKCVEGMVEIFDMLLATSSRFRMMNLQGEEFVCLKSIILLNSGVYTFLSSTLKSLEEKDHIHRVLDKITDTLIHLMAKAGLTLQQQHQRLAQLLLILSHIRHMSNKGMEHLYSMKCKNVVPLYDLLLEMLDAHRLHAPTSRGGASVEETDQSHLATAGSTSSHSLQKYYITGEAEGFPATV
Kind of experiment: Estrogen Receptor α Flash Plate Assay. To be noted: displacement of radio-labeled estrogen (0.5 nM), FlashPlate, 1 h room temperature; read-out: ERα Binding IC50. The protocol: Estrogen Receptor α Flash Plate Assay
This assay monitors binding of radio-labeled estrogen to the estrogen receptor. It is performed on a BioMek 2000 (Beckman). Plates are read in a scintillation counter (Packard TopCount), with decreased counts an indication of binding of a compound to the receptor. The assay was run according to the procedure described by Allan, et al., Anal. Biochem. (1999), 275(2), 243-247.
On day one, 100 μL of Estrogen Screening Buffer (ESB, Panvera) containing 5 mM dithiothreitol (DTT, Panvera), 0.5 μg mouse anti-estrogen receptor monoclonal antibody (SRA-1010, Stressgen) and 50 ng purified human estrogen receptor α (Panvera) were added to each well of a 96 well FlashPlate Plus plate crosslinked with goat anti-mouse antibodies (NEN Life Sciences). The plate was sealed and incubated at 4° C. overnight.
On day two, each well was washed three times with 200 μL PBS, pH 7.2, at room temperature. To each well was then added 98 μL radio-labeled estrogen (0.5 nM, which equals 6 nCi for a 120 Ci/mmol batch, Amersham), diluted in ESB and 5 mM dithiothreitol (DTT). To individual wells were then added 2.5 μL test compound diluted in 30% (v/v) dimethyl sulfoxide/50 mM HEPES, pH 7.5. The wells were mixed three times by aspiration, the plate sealed and incubated at room temperature for one hour. The wells were then counted for 1 min in a TopCount scintillation counter (Packard).
(§1) Representative compound of the present invention were tested according to the procedure described above for binding to the Estrogen Receptor a and Estrogen Receptor β, with results as listed in Table 6.

Experiment [2] has as its target T2, hER-β (Homo sapiens, UniProt Q92731).
T2 construct: purchased Panvera
Kind of experiment: Estrogen Receptor β Fluorescence Polarization Assay. To be noted: displacement of Fluormone ES2, fluorescence polarization, 1 h room temperature; read-out: ERβ Binding IC50.
Description: Estrogen Receptor β Fluorescence Polarization Assay
This assay monitors binding of a fluorescent analog of estrogen (Fluormone ES2, Panvera) to the estrogen receptor. Plates are read in a fluorometer that can be set to polarization mode. A decrease in […] relative to vehicle control is an indication of binding of a compound to the receptor.
It is crucial to avoid introduction of air bubbles into the reaction in each well of the 96 well plate throughout this procedure. (Bubbles on the surface of the reaction disrupt light flow, affecting the polarization reading.) However, it is also crucial to effectively mix the reaction components upon addition to the well.
On ice, a 2× standard mixture of Assay Buffer (Panvera), 10 nM DTT and 40 nM ES2 was prepared. On ice, a 2× reaction mixture of Assay Buffer (Panvera), and 20 nM hER-β (Panvera) and 40 nM ES2 was also prepared.
Dilutions of test compound were prepared in 30% (v/v) dimethyl sulfoxide/50 mM HEPES, pH 7.5. At this point, the dilutions were 40× the final required concentration.
The standard mixture at 50 μL was then added to each well. The reaction mixture at 48 μL was added to all wells. The compound dilution at 2.5 μL was added to the appropriate wells. The reaction mixtures were mixed using a manual pipette, a roll of aluminum foil adhesive cover was placed on the plate and the plate incubated at room temperature for 1 hour.
Each well on the plate was then read in an LjL Analyst with an excitation wavelength of […] and an emission wavelength of 538.
as §1

T2 sequence (Q92731 whole entry): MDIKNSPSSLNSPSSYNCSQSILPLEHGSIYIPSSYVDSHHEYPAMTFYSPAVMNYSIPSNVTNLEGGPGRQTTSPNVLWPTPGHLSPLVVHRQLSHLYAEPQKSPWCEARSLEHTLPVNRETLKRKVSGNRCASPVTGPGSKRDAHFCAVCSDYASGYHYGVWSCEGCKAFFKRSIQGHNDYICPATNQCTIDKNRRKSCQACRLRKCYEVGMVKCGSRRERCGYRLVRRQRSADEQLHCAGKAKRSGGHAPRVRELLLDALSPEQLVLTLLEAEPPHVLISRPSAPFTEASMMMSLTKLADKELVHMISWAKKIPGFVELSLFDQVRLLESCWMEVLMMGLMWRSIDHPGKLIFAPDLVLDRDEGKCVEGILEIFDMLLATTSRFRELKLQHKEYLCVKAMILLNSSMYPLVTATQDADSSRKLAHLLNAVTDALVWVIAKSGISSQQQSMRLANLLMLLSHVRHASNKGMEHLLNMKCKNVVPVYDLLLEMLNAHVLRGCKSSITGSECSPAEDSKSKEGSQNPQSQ

Turning to `COc1cccc(C2COc3cc(OC)ccc3N(C(=O)c3ccc(OCCN(C)C)cc3)C2)c1` (centres unmarked) [Compound 8], the figures for the IC50 in experiment [1] and in experiment [2] were 2900 nM and above 100000 nM, respectively.

In the case of `CN(C)CCOc1ccc(C(=O)N2CC(c3cccc(O)c3)COc3cc(O)ccc32)cc1` (centres unmarked) [Compound 9], the values for the IC50 in experiment [1] and in experiment [2] were 530 nM and 26000 nM, respectively.

`Oc1ccc(C2COc3cc(O)ccc3N(Cc3ccc(OCCN4CCCCC4)cc3)C2)cc1` (centres unmarked) [Compound 12, 7-(4-Hydroxy-phenyl)-9-[4-(2-piperidin-1-yl-ethoxy)-benzyl]-6,7,8,9-tetrahydro-5-oxa-9-aza-benzocyclohepten-3-ol]: the IC50 in experiment [1] was determined as 430 nM; in experiment [2], 1100 nM.

For the molecule `O=C(c1cccc(OCCN2CCCCC2)c1)N1CC(c2cccc(O)c2)COc2cc(O)ccc21` (centres unmarked) [Compound 13, [3-Hydroxy-7-(3-hydroxy-phenyl)-7,8-dihydro-6H-5-oxa-9-aza-benzocyclohepten-9-yl]-[3-(2-piperidin-1-yl-ethoxy)-phenyl]-methanone], the 50% inhibitory concentration (IC50) in experiment [1] turned out to be 81 nM; in experiment [2], 2600 nM.

Regarding `O=C(c1ccc(OCCCl)cc1)N1CC(c2cccc(O)c2)COc2cc(O)ccc21` (centres unmarked) [Compound 14], the half-maximal inhibitory concentration (IC50) is 24 nM in experiment [1] and 1100 nM in experiment [2].

Turning to `CC(=O)Oc1cccc(C2COc3cc(OC(C)=O)ccc3N(C(=O)c3ccc(OCCCl)cc3)C2)c1` (centres unmarked) [Compound 15], the IC50 stood at 100 nM in experiment [1] and 2600 nM in experiment [2].

For `CC(=O)Oc1cccc(C2COc3cc(OC(C)=O)ccc3N(Cc3ccc(OCCN4CCCCC4)cc3)C2)c1` (centres unmarked) [Compound 16], the half-inhibitory concentration (IC50) in experiment [1] was found to be 120 nM; in experiment [2], 670 nM.

For `Oc1ccc(C2COc3cc(O)ccc3N(Cc3cccc(OCCCl)c3)C2)cc1` (centres unmarked) [Compound 18, 9-[3-(2-Chloro-ethoxy)-benzyl]-7-(4-hydroxy-phenyl)-6,7,8,9-tetrahydro-5-oxa-9-aza-benzocyclohepten-3-ol], the IC50 turned out to be 66 nM in experiment [1] and 88 nM in experiment [2].

`COCOc1ccc(C2COc3cc(OCOC)ccc3N(Cc3cccc(OCCCl)c3)C2)cc1` (centres unmarked) [Compound 19, 9-[3-(2-Chloro-ethoxy)-benzyl]-3-methoxymethoxy-7-(4-methoxymethoxy-phenyl)-6,7,8,9-tetrahydro-5-oxa-9-aza-benzocycloheptene]: the IC50 in experiment [1] and in experiment [2] was above 1000 nM throughout.

Regarding `COCOc1ccc(C2COc3cc(OCOC)ccc3N(Cc3cccc(OCCN4CCCCC4)c3)C2)cc1` (centres unmarked) [Compound 20, 3-Methoxymethoxy-7-(4-methoxymethoxy-phenyl)-9-[3-(2-piperidin-1-yl-ethoxy)-benzyl]-6,7,8,9-tetrahydro-5-oxa-9-aza-benzocycloheptene], the IC50 in experiment [1] and in experiment [2] was above 1000 nM throughout.

Take `COCOc1ccc(C2COc3cc(OCOC)ccc3N(Cc3cccc(OCCN4CCOCC4)c3)C2)cc1` (centres unmarked) [Compound 21]: the IC50 in experiment [1] and in experiment [2] was above 1000 nM throughout.

For `Oc1ccc(C2COc3cc(O)ccc3N(Cc3cccc(OCCN4CCCCC4)c3)C2)cc1` (centres unmarked) [Compound 22, 7-(4-Hydroxy-phenyl)-9-[3-(2-piperidin-1-yl-ethoxy)-benzyl]-6,7,8,9-tetrahydro-5-oxa-9-aza-benzocyclohepten-3-ol], the IC50 worked out at 52 nM in experiment [1] and 560 nM in experiment [2].

As to `Oc1ccc(C2COc3cc(O)ccc3N(Cc3cccc(OCCN4CCOCC4)c3)C2)cc1` (centres unmarked) [Compound 23], the IC50 was 350 nM in experiment [1] and 870 nM in experiment [2].

In the case of `Oc1cccc(C2COc3cc(O)ccc3N(Cc3cccc(OCCCl)c3)C2)c1` (centres unmarked) [Compound 24], the figures for the IC50 in experiment [1] and in experiment [2] were 56 nM and 92 nM, respectively.

Turning to `Oc1cccc(C2COc3cc(O)ccc3N(Cc3cccc(OCCN4CCCCC4)c3)C2)c1` (centres unmarked) [Compound 25], the results for the IC50 in experiment [1] and in experiment [2] were 22 nM and 300 nM, respectively.

With `CC(C)(C)C(=O)Oc1ccc(C2COc3cc(OC(=O)C(C)(C)C)ccc3N(Cc3cccc(OCCN4CCCCC4)c3)C2)cc1` (centres unmarked) [Compound 26], the IC50 in experiment [1] and in experiment [2] was above 1000 nM throughout.
